Consider 15 molecules from patent US11225484B2, “Substituted octahydropyrrolo[3,4-b]pyrroles as antagonists of the muscarinic acetylcholine receptor M4” (Vanderbilt University, priority 2017, dated 2022).

Each structure is given as a SMILES string.

One test has as its target T1, Rat M4 (Rattus norvegicus, UniProt P08485).
T1 construct: expressed in transfected cells; host or cells: CHO-K1 (ATCC), co-transfected with chimeric G protein Gqi5
T1 sequence (P08485 1-478): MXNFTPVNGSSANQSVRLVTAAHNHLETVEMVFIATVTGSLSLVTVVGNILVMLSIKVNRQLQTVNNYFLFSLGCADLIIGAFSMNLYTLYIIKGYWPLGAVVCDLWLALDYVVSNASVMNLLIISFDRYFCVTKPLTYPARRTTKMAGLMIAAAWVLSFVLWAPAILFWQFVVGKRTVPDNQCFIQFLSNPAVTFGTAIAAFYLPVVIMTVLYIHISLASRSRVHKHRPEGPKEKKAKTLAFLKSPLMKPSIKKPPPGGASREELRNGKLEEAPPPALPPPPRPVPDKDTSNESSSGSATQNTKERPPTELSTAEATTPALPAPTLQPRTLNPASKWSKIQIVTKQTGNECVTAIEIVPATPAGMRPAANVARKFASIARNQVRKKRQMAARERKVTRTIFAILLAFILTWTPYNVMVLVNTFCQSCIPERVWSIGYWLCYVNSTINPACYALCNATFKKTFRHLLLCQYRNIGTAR
Kind of test: mAChR M4 cell-based functional assay (calcium flux, rat M4/Gqi5/CHO cells). Conditions: for remaining activity at 30 µM: CHO, % ACh maximum at 30 μM, read-out: Emin (%) rat M4; for IC50: antagonist mode, decrease of the response to an EC80 concentration of acetylcholine, CHO-K1 cells with Gqi5. The protocol: (§1) Human or rat M4 cDNA, along with the chimeric G protein Gqi5, were transfected into Chinese hamster ovary (CHO-K1) cells purchased from the American Type Culture Collection using Lipofectamine2000. M4/Gqi5/CHO cells were grown in Ham's F-12 medium containing 10% heat-inactivated fetal bovine serum (FBS), 20 mM HEPES, 500 μg/mL G418 sulfate, and 200 μg/mL Hygromycin B.
(§2) For high throughput measurement of agonist-evoked increases in intracellular calcium, CHO-K1 cells stably expressing muscarinic receptors were plated in growth medium lacking G418 and hygromycin at 15,000 cells/20 μL/well in Greiner 384-well black-walled, tissue culture (TC)-treated, clear-bottom plates (VWR). Cells were incubated overnight at 37° C. and 5% CO2. The next day, cells were washed using an ELX 405 (BioTek) with assay buffer; the final volume was then aspirated to 20 μL. Next, 20 μL of a 2.3 μM stock of Fluo-4/acetoxymethyl ester (Invitrogen, Carlsbad, Calif.), prepared as a 2.3 mM stock in DMSO and mixed in a 1:1 ratio with 10% (w/v) Pluronic F-127 and diluted in assay buffer, was added to the wells and the cell plates were incubated for 50 min at 37° C. and 5% CO2. Dye was removed by washing with the ELX 405 and the final volume was aspirated to 20 μL. Compound master plates were formatted in a 10 point concentration-response curve (CRC) format (1:3 dilutions) in 100% DMSO with a starting concentration of 10 or 1 mM using a BRAVO liquid handler (Agilent). Test compound CRCs were then transferred to daughter plates (240 nL) using the Echo acoustic plate reformatter (Labcyte, Sunnyvale, Calif.) and then diluted into assay buffer (40 μL) to a 2× stock using a Thermo Fisher Combi (Thermo Fisher Scientific, Waltham, Mass.).
(§3) Calcium flux was measured using the Functional Drug Screening System (FDSS) 6000 or 7000 (Hamamatsu Corporation, Tokyo, Japan) as an increase in the fluorescent static ratio. Compounds were applied to cells (20 μL, 2×) using the automated system of the FDSS at 2 seconds into the protocol and the data were collected at 1 Hz. At 143 s, 10 μL of an EC20 concentration of the muscarinic receptor agonist acetylcholine was added (5×), followed by the addition of 12 μL of an EC80 concentration of acetylcholine at the 268 s time point (5×). Agonist activity was analyzed as a concentration-dependent increase in calcium mobilization upon compound addition. Positive allosteric modulator activity was analyzed as a concentration-dependent increase in the EC20 acetylcholine response. Antagonist activity was analyzed as a concentration-dependent decrease in the EC80 acetylcholine response for the purposes of the tables herein, an IC50 (inhibitory concentration 50) was calculated as a concentration-dependent decrease of the response elicited by an EC80 concentration of acetylcholine, Concentration-response curves were generated using a four-parameter logistical equation in XLFit curve fitting software (IDBS, Bridgewater, N.J.) for Excel (Microsoft, Redmond, Wash.) or Prism (GraphPad Software, Inc., San Diego, Calif.) or the Dotmatics software platform (Dotmatics, Bishop's Stortford, UK).
(§4) Compounds were synthesized as described above. Activity (IC50 and Emin) was determined in the mAChR M4 cell-based functional assay as described above and the data are shown in Table 2. The compound number corresponds to the compound numbers used in Examples 1-3.

Another test addresses T2, Human M4 (Homo sapiens, UniProt P08173).
T2 construct: expressed in transfected cells; host or cells: CHO-K1 (ATCC), co-transfected with chimeric G protein Gqi5
T2 sequence (P08173 1-479): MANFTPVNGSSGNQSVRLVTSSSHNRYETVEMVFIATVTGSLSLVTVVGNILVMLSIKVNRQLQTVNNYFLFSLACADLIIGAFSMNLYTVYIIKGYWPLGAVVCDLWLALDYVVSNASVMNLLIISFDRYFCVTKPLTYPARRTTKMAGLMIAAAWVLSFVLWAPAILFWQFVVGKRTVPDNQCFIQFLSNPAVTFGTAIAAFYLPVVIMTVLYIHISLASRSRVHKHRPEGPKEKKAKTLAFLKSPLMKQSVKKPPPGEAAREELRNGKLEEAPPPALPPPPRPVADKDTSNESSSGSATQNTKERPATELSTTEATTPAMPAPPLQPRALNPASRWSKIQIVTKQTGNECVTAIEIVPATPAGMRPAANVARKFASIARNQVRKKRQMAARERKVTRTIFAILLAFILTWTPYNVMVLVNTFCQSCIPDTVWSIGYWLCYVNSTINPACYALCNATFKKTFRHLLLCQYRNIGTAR
In words: mAChR M4 cell-based functional assay (calcium flux, human M4/Gqi5/CHO cells). As to conditions: for remaining activity at 30 µM: CHO, % ACh maximum at 30 μM, read-out: Emin (%) human M4; for IC50: antagonist mode, decrease of the response to an EC80 concentration of acetylcholine, CHO-K1 cells with Gqi5. The protocol: as §1, §2, §3, §4
(In general: Calcium assays in cells follow changes in intracellular calcium, usually with a dye or a luminescent sensor.)

For the molecule `Cc1cnn(C)c1-c1ccc(N2CCC3CN(CC45CC6CC(CC(C6)C4)C5)CC32)nn1` (centres unmarked) [Compound 1, 5-(Adamantan-1-ylmethyl)-1-(6-(1,4-dimethyl-1H-pyrazol-5-y)pyridazin-3-yl)octahydropyrrolo[3,4-b]pyrrole], at Rat M4, the remaining activity at 30 µM was 4.61% and the IC50 is 0.509 µM.
`Cc1cnn(C)c1-c1ccc(N2CCC3CN(CCCC(C)(C)C)CC32)nn1` (centres unmarked) [Compound 2, 1-(6-(1,4-Dimethyl-1H-pyrazol-5-yl)pyridazin-3-yl)-5-(4,4-dimethylpentyl)octahydropyrrolo[3,4-b]pyrrole]: on Human M4, the remaining activity at 30 µM was 3.83% and the IC50 turned out to be 0.647 µM. At Rat M4, the remaining activity at 30 µM was 6.85% and the IC50 is 1.5 µM.
`Cc1cnn(C)c1-c1ccc(N2CCC3CN(CC4CC5C=CC4C5)CC32)nn1` (centres unmarked) [Compound 3, 5-(bicyclo[2.2.1]hept-5-en-2-ylmethyl)-1-(6-(1,4-dimethyl-1H-pyrazol-5-yl)pyridazin-3-yl)octahydropyrrolo[3,4-b]pyrrole]: the remaining activity at 30 µM on Human M4 turned out to be 4.28%; on Rat M4 it was 16.8%. For the same molecule, the IC50 worked out at 0.8 µM on Human M4 and 3.57 µM on Rat M4.
`Cc1cccnc1CN1CC2CCN(c3ccc(-c4c(C)cnn4C)nn3)C2C1` (centres unmarked) [Compound 4, 1-(6-(1,4-dimethyl-1H-pyrazol-5-yl)pyridazin-3-yl)-5-((3-methylpyridin-2-yl)methyl)octahydropyrrolo[3,4-b]pyrrole]: at Human M4, the remaining activity at 30 µM was determined as 26.2% and the half-inhibitory concentration (IC50) was more than 10 µM. For the same molecule, at Rat M4, the remaining activity at 30 µM turned out to be 63.1% and the 50% inhibitory concentration (IC50) was more than 10 µM.
Regarding `Cc1cnn(C)c1-c1ccc(N2CCC3CN(Cc4ccccc4)CC32)nn1` (centres unmarked) [Compound 5, 5-benzyl-1-(6-(1,4-dimethyl-1H-pyrazol-5-yl)pyridazin-3-yl)octahydropyrrolo[3,4-b]pyrrole], on Human M4, the remaining activity at 30 µM turned out to be 46.7% and the IC50 was more than 10 µM.
Turning to `Cc1cnn(C)c1-c1ccc(N2CCC3CN(CCc4ccccc4)CC32)nn1` (centres unmarked) [Compound 6, 1-(6-(1,4-ditnethyl-1H-pyrazol-5-yl)pyridazin-3-yl)-5-phenethyloctahydropyrrolo[3,4-b]pyrrole], the remaining activity at 30 µM on Human M4 turned out to be 7.19%; on Rat M4, 30.9%. Also, the IC50 at Human M4 was 1.98 µM; on Rat M4, more than 10 µM.
As to `Cc1cnn(C)c1-c1ccc(N2CCC3CN(CCCc4ccccc4)CC32)nn1` (centres unmarked) [Compound 7, 1-(6-(1,4-dimethyl-1H-pyrazol-5-yl)pyridazin-3-yl)-5-(3-phenylpropyl)octahydropyrrolo[3,4-b]pyrrole], at Human M4, the remaining activity at 30 µM came to 6.12% and the concentration for half-maximal inhibition (IC50) came to 1.43 µM. At Rat M4, the remaining activity at 30 µM was determined as 26.2% and the IC50 is more than 10 µM.
With `Cc1cnn(C)c1-c1ccc(N2CCC3CN(CC4CCN(Cc5ccccc5)CC4)CC32)nn1` (centres unmarked) [Compound 8, 5-((1-benzylpiperidin-4-yl)methyl)-1-(6-(1,4-dimethyl-1H-pyrazol-5-yl)pyridazin-3-yl)octahydropyrrolo[3,4-b]pyrrole], at Human M4, the remaining activity at 30 µM is 6.61% and the IC50 came out at 3.38 µM. At Rat M4, the remaining activity at 30 µM amounted to 32.4% and the concentration for half-maximal inhibition (IC50) is more than 10 µM.
Take `Cc1cnn(C)c1-c1ccc(N2CCC3CN(CCC(C)c4ccccc4)CC32)nn1` (centres unmarked) [Compound 9, 1-(6-(1,4-dimethyl-1H-pyrazol-5-yl)pyridazin-3-yl)-5-(3-phenylbutyl)octahydropyrrolo[3,4-b]pyrrole]: on Human M4, the remaining activity at 30 µM was determined as 4.33% and the IC50 stood at 0.498 µM. Further, on Rat M4, the remaining activity at 30 µM was 6.32% and the IC50 amounted to 2.33 µM.
As for `Cc1cnn(C)c1-c1ccc(N2CCC3CN(CC4C5CC6CC(C5)CC4C6)CC32)nn1` (centres unmarked) [Compound 10, 5-(adamantan-2-ylmethyl)-1-(6-(1,4-dimethyl-1H-pyrazol-5-yl)pyridazin-3-yl)octahydropyrrolo[3,4-b]pyrrole], the remaining activity at 30 µM is 4.12% at Human M4 and 4.82% at Rat M4. Further, the concentration for half-maximal inhibition (IC50) worked out at 0.453 µM on Human M4 and 1.89 µM at Rat M4.
Take `Cc1cnn(C)c1-c1ccc(N2CCC3CN(CC(C)c4ccccc4)CC32)nn1` (centres unmarked) [Compound 11, 1-(6-(1,4-dimethyl-1H-pyrazol-5-yl)pyridazin-3-yl)-5-(2-phenylpropyl)octahydropyrrolo[3,4-b]pyrrole]: on Human M4, the remaining activity at 30 µM came out at 15.1% and the IC50 is more than 10 µM. Besides, at Rat M4, the remaining activity at 30 µM came to 55.5% and the IC50 is more than 10 µM.
On to `CC/C=C\CCCN1CC2CCN(c3ccc(-c4c(C)cnn4C)nn3)C2C1` (centres unmarked) [Compound 12, (Z)-1-(6-(1,4-dimethyl-1H-pyrazol-5-yl)pyridazin-3-yl)-5-(hept-4-en-1-yl)octahydropyrrolo[3,4-b]pyrrole], for which, at Human M4, the remaining activity at 30 µM turned out to be 15.1% and the IC50 was more than 10 µM. On Rat M4, the remaining activity at 30 µM was 45.2% and the IC50 was more than 10 µM.
`CCCCCCN1CC2CCN(c3ccc(-c4c(C)cnn4C)nn3)C2C1` (centres unmarked) [Compound 13, 1-(6-(1,4-dimethyl-1H-pyrazol-5-yl)pyridazin-3-yl)-5-hexyloctahydropyrrolo[3,4-b]pyrrole]: on Human M4, the remaining activity at 30 µM came to 7.23% and the IC50 is 2.15 µM. In addition, at Rat M4, the remaining activity at 30 µM is 28.4% and the 50% inhibitory concentration (IC50) is more than 10 µM.
Regarding `Cc1cnn(C)c1-c1ccc(N2CCC3CN(CC(c4ccccc4)c4ccccc4)CC32)nn1` (centres unmarked) [Compound 14, 1-(6-(1,4-dimethyl-1H-pyrazol-5-yl)pyridazin-3-yl)-5-(2,2-diphenylethyl)octahydropyrrolo[3,4-b]pyrrole], at Human M4, the remaining activity at 30 µM stood at 8.96% and the concentration for half-maximal inhibition (IC50) came to 9.19 µM. At Rat M4, the remaining activity at 30 µM stood at 48.3% and the IC50 was more than 10 µM.
`CCc1ccncc1-c1ccc(N2CCC3CN(CC45CC6CC(CC(C6)C4)C5)CC32)nn1` (centres unmarked) [Compound 15, 5-(adamantan-1-ylmethyl)-1-(6-(4-ethylpyridin-3-yl)pyridazin-3-yl)octahydropyrrolo[3,4-b]pyrrole]: at Human M4, the remaining activity at 30 µM was found to be 4.18% and the half-inhibitory concentration (IC50) is 0.899 µM. In addition, on Rat M4, the remaining activity at 30 µM worked out at 3.98% and the IC50 was determined as 1.71 µM.

The IC50 is the point on the concentration scale where inhibition reaches its midpoint.
